Measurements published in patent publication US20160108414A1, “GROWTH-RELATED ENOX PROTEINS FROM PLANTS WITH YIELD ENHANCEMENT POTENTIAL, SEQUENCES AND METHODS” (Mor-NuCo Enterprises, Inc., priority 2013, published 2016).
One block for each molecule: values may come before it.

What was measured:
Type in all cases: biochemical
recombinant ABP-20 = target: T1, recombinant ABP-20 (Prunus persica, UniProt O04011, DUP151-151); assay: NADH oxidase activity of IEF-purified recombinant ABP-20 (dNOX); conditions: for NADH oxidase activity: average of 3 determinations ± SD, None = 0.1 ± 0.08
T1 construct: made in house; host or cells: E. coli BL21 (DE3), pET11b
Experimental: (§1) Oxidation of NADH was determined spectrophotometrically from the disappearance of NADH measured at 340 nm in a reaction mixture containing 25 mM Tris-MES (pH 7.2), 100 μM GSH, 1 mM KCN to inhibit mitochondrial oxidase activity, 150 μM NADH and the enzyme at 37° C. with temperature control (±0.5° C.) and stirring. Prior to assay, 1 μM reduced glutathione was added to reduce the protein in the presence of substrate. After 10 min, 0.03% hydrogen peroxide was added to reoxidize the protein under renaturing conditions and in the presence of substrate to start the reaction. Activities were measured using paired Hitachi U3210 or paired SLM Aminco 2000 spectrophotometers both with continuous recording. Assays were run for 1 min and were repeated on the same sample at intervals of 1.5 min for the times indicated. An extinction coefficient of 6.22 cm^−1 mM^−1 was used to determine specific activity.
Cells were centrifuged at 5,000 g for 6 min. Pellets were then resuspended in 20 mM Tris-HCl, pH 8.0, containing 0.5 mM PMSF, 1 mM benzamidine and 1 mM 6-aminocaproic and lysed by three passages through a French pressure cell (SLM Aminco) at 20,000 psi. Expression of the recombinant ABP-20 of about 20 kDa was confirmed by SDS-PAGE with silver staining. Transformed cells were stored at −80° C. in a standard glycerol stock solution. The recombinant proteins were further purified on Criterion IEF gels (Bio-Rad, Hercules, Calif.). The IEF gel was cut into seven equal segments. The pH represented by each slice was based on IEF standards (Bio-Rad). The slices were soaked in 15 mM Tris-Mes buffer, pH 7, at 4° C. for overnight with shaking. The gel-free extracts were assayed for ENOX activities as follows: […]

[1] = system: recombinant Arabidopsis ENOX1; assay: NADH oxidase activity of IEF-purified recombinant Arabidopsis ENOX1; conditions: for NADH oxidase activity: average of 3 determinations ± SD, None = 2.7 ± 0.4; for Effect on ENOX1 activity eluted from the IEF gel: concentrations of Table 5
Experimental: Cells were centrifuged at 5,000 g for 6 min. Pellets were then resuspended in 20 mM Tris-HCl, pH 8.0, containing 0.5 mM PMSF, 1 mM benzamidine and 1 mM 6-aminocaproic and lysed by three passages through a French pressure cell (SLM Aminco) at 20,000 psi. Expression of the recombinant Arabidopsis ENOX1 of about 14 kDa was confirmed by SDS-PAGE with silver staining. Transformed cells were stored at −80° C. in a standard glycerol stock solution. The Arabidopsis ENOX1 proteins were further purified on Criterion IEF gels (Bio-Rad, Hercules, Calif.). The IEF gel was cut into seven equal segments. The pH represented by each slice was based on IEF standards (Bio-Rad). The slices were soaked in 15 mM Tris-Mes buffer, pH 7, at 4° C. for overnight with shaking. The gel-free extracts were assayed for ENOX1 activity.
as §1
IEF purified ENOX1 was concentrated to 0.7 mg/ml by using a Centricon concentrator (Millipore Corporation, Danvers, Mass.) fitted with a 10,000 nominal molecular weight limit ultracel YM membrane. Samples (50 μl) were combined with 1 μl of trifluoroacetic acid (TFA) in the presence or absence of 15 μl 10 mM bathocuproine. After 2 h of incubation at room temperature, the samples were dialyzed (Spectra/Pro Dialysis membrane, molecular weight cut-off 6-8,000, Spectrum Laboratories (Rancho Dominguez, Calif.) against 20 mM Tris-HCl, pH 8, at 4° C. overnight.

dNOX (ABP-20) [2] = assay: NADH oxidation of dNOX (ABP-20) site-directed mutants
Experimental: as §1
(§2) Amino acids indicated were replaced by alanines by site-directed mutagenesis according to Braman et al. (Braman, J., Papworth, C. and Greener, A. 1996. Methods Mol. Biol. 57:32-44). Numbered amino acids and nucleotide positions of splice variant products refer to numbers assigned to amino acids of the full length transcript

dNOX (ABP-20) [3] = assay: DTDP (protein disulfide-thiol) interchange of dNOX (ABP-20) site-directed mutants
Experimental: Protein disulfide-thiol interchange was determined spectrophotometrically from the increase in absorbance at 340 nm resulting from the cleavage of dithiodipyridine (DTDP (Morré, D. J., Gomez-Rey, M. L., Schramke, C., Em, O., Lawler, J., Hobeck, J. and Morré, D. M. 1999. Mol. Cell. Bochem. 200: 7-13). DTDP cleavage was buffered (50 mM Tris-MES, pH 7). The assay was preincubated (1 h at room temperature) with 0.5 μmoles 2,2′-dithiodipyridine (DTDP) in 5 μl of DMSO to react with endogenous reductants present with the plasma membranes. After 10 min, a further […] DTDP were added in 35 μl DMSO to start the reaction. The final reaction volume was […]. The reaction was monitored from the increase in absorbance at 340 nm. Specific activities were calculated using a milimolar absorption coefficient of 6.21.
as §2

Molecule: O=C(O)COc1cccc(Cl)c1Cl [2,3-dichlorophenoxyacetic acid]
Effect on activity of recombinant ABP-20 (recombinant ABP-20): without effect
NADH oxidase activity (recombinant ABP-20; addition 1 μM): 0.15 ± 0.01 µmol/min/mg

Molecule: COc1cc(CNC(=O)CCCC/C=C/C(C)C)ccc1O [Capsaicin]
NADH oxidase activity ([1]; addition 1 μM): 3.7 ± 0.1 µmol/min/mg
Effect on ENOX1 activity eluted from the IEF gel [1]: no inhibition was observed

Molecule: N.N.[Cl][Pt][Cl] [Cis-platinum]
Effect on ENOX1 activity eluted from the IEF gel [1]: no inhibition was observed
NADH oxidase activity ([1]; inhibitor 100 μM): 3.5 ± 0.002 µmol/min/mg
Effect on activity of recombinant ABP-20 (recombinant ABP-20): inhibited the activity
NADH oxidase activity (recombinant ABP-20; addition 1 μM): 0.2 ± 0.05 µmol/min/mg

Molecule: COc1cccc2c1C(=O)c1c(O)c3c(c(O)c1C2=O)C[C@@](O)(C(=O)CO)C[C@@H]3O[C@H]1C[C@H](N)[C@H](O)[C@H](C)O1 [Doxorubicin]
Effect on activity of recombinant ABP-20 (recombinant ABP-20): inhibited the activity
NADH oxidase activity (recombinant ABP-20; addition 1 μM): 0.2 ± 0.05 µmol/min/mg

Effect on ENOX1 activity eluted from the IEF gel [1]: no inhibition was observed
NADH oxidase activity ([1]; inhibitor 500 μM): 3.9 ± 0.05 µmol/min/mg
Molecule: O=C(O[C@@H]1Cc2c(O)cc(O)cc2O[C@@H]1c1cc(O)c(O)c(O)c1)c1cc(O)c(O)c(O)c1 [EGCg]

NADH oxidase activity ([1]; inhibitor 100 μM): 3.0 ± 0.5 µmol/min/mg
Molecule: O=C(O)c1cc(O)c(O)c(O)c1 [Gallic acid]

Molecule: CC1=CC(=O)[C@@H](O)[C@]2(C)[C@H]3[C@@]4(O)OC[C@]35[C@H]([C@@H](C)[C@H]4O)[C@@H](O)C(=O)O[C@@H]5C[C@@H]12 [Glaucarubolone]
Effect on activity of recombinant ABP-20 (recombinant ABP-20): inhibited the activity
NADH oxidase activity (recombinant ABP-20; addition 1 μM): 0.2 ± 0.06 µmol/min/mg

Molecule: O=C(O)Cc1c[nH]c2ccccc12 [Indole-3-acetic acid]
NADH oxidase activity (recombinant ABP-20; addition 1 μM): 0.8 ± 0.05 µmol/min/mg
optimum concentration for activation (recombinant ABP-20; higher concentration less effective): about 1 μM

Effect on ENOX1 activity eluted from the IEF gel [1]: inhibited
NADH oxidase activity ([1]; inhibitor 100 μM): 1.8 ± 0.15 µmol/min/mg
Molecule: CC(=O)Nc1cc(NS(=O)(=O)C(F)(F)F)c(C)cc1C [Mefluidide, N-[2,4-Dimethyl-5-[[(trifluoromethyl)sulfonyl]amino]phenyl] acetamide]

Molecule: O=C(O)c1cc[c]([Hg][Cl])cc1 [PCMB]
Effect on activity of recombinant ABP-20 (recombinant ABP-20): inhibited
NADH oxidase activity (recombinant ABP-20; addition 100 μM): 0.1 ± 0.05 µmol/min/mg

Molecule: O=S(=O)(O)c1cc[c]([Hg][Cl])cc1 [PCMS]
Effect on activity of recombinant ABP-20 (recombinant ABP-20): inhibited
NADH oxidase activity (recombinant ABP-20; addition 100 μM): 0.3 ± 0.2 µmol/min/mg

Molecule: CC[C@@H](C)C(=O)O[C@H]1C(=O)O[C@@H]2C[C@H]3C(C)=CC(=O)[C@@H](O)[C@]3(C)[C@H]3[C@@H](O)[C@H](O)[C@]4(C)OC[C@]32[C@@H]14 [Simalikalactone D]
NADH oxidase activity ([1]; addition 1 μM): 0.9 ± 0.1 µmol/min/mg
Effect on ENOX1 activity eluted from the IEF gel [1]: inhibited
Effect on activity of recombinant ABP-20 (recombinant ABP-20): without effect
NADH oxidase activity (recombinant ABP-20; addition 1 μM): 0.65 ± 0.07 µmol/min/mg

Molecule: CCS(=O)(=O)c1nc2ccccn2c1S(=O)(=O)NC(=O)Nc1nc(OC)cc(OC)n1 [Sulfonsulfuron]
Effect on ENOX1 activity eluted from the IEF gel [1]: inhibited
NADH oxidase activity ([1]; inhibitor 100 μM): 1.2 ± 0.5 µmol/min/mg

NADH oxidase activity ([1]; inhibitor 10 μM): 3.4 ± 0.2 µmol/min/mg
Molecule: OCCc1ccc(O)cc1 [Tyrosol]

Molecule: Cc1cc(-c2ccccc2)c2ccc3c(-c4ccccc4)cc(C)nc3c2n1 [bathocuproine]
NADH oxidase activity, 24 min period ([1]; assayed with TFA and bathocuproine, FIG. 12): much reduced
dNOX activity after unfolding (recombinant ABP-20; trifluoroacetic acid plus bathocuproine, FIG. 30B): activity was lost

Period length of ENOX1 activity ([1]; assayed in heavy water, normal period 24 min): about 30 min
Molecule: [2H]O[2H] [heavy water, Deuterium Oxide]

New maximum after melatonin addition (phasing of 24 min period) ([1]; 1 μM melatonin): 24 min
Molecule: COc1ccc2[nH]cc(CCNC(C)=O)c2c1 [melatonin]

Molecule: Trans-platinum
Effect on activity of recombinant ABP-20 (recombinant ABP-20): without effect
NADH oxidase activity (recombinant ABP-20; addition 1 μM): 0.7 ± 0.1 µmol/min/mg

B1: None (Wild Type): recombinant auxin-activated ENOX protein ABP-20 (Prunus persica), SEQ ID NO: 8, unmodified (protein, listed as Prunus persica)
chain: MPQATMIFPILFTFFLLLSSSNAAVQDFCVADLAAPEGPAGFSCKKPASVKVNDFVFSGLGIAGNTSNIIKAAVTPAFVAQFPGVNGLGISIARLDLAVGGVVPFHTHPGASEVLIVAQGTICAGFVASDNTPYLQTLEKGDIMVFPQGLLLHFQVNGGEAPALAFASFGSASPGLQILDFALFKNDLPTEVIAQTTFLDAAQIKKLKGVLGGTN
modifications: DISULFID (29)..(44); BINDING (59)..(64); BINDING (106)..(108); BINDING (113)..(113); BINDING (150)..(152)
NADH Oxidation (dNOX (ABP-20) [2]): 0.8 ± 0.1 μmoles/min/mg protein
DTDP Interchange (dNOX (ABP-20) [3]): 0.9 ± 0.05 μmoles/min/mg protein

B2: G59A: ABP-20 with G59 replaced by alanine (adenine nucleotide binding motif) (protein, UniProt O04011 24-214, looked up, variant G59A)
Auxin-binding protein ABP20: AVQDFCVADLAAPEGPAGFSCKKPASVKVNDFVFSALGIAGNTSNIIKAAVTPAFVAQFPGVNGLGISIARLDLAVGGVVPFHTHPGASEVLIVAQGTICAGFVASDNTPYLQTLEKGDIMVFPQGLLHFQVNGGEAPALAFASFGSASPGLQILDFALFKNDLPTEVIAQTTFLDAAQIKKLKGVLGGTN
Effect of replacement on NADH oxidation (dNOX (ABP-20) [2]): largely eliminated NADH oxidation
NADH Oxidation (dNOX (ABP-20) [2]): 0.06 ± 0.02 μmoles/min/mg protein
DTDP Interchange (dNOX (ABP-20) [3]): 0.07 ± 0.02 μmoles/min/mg protein
Effect of replacement on disulfide-thiol interchange (dNOX (ABP-20) [3]): without effect

B3: H152A: ABP-20 putative copper site replacement (protein, UniProt O04011 24-214, looked up, variant H152A)
Auxin-binding protein ABP20: AVQDFCVADLAAPEGPAGFSCKKPASVKVNDFVFSGLGIAGNTSNIIKAAVTPAFVAQFPGVNGLGISIARLDLAVGGVVPFHTHPGASEVLIVAQGTICAGFVASDNTPYLQTLEKGDIMVFPQGLLAFQVNGGEAPALAFASFGSASPGLQILDFALFKNDLPTEVIAQTTFLDAAQIKKLKGVLGGTN
Effect of replacement on NADH oxidation (dNOX (ABP-20) [2]): near background
NADH Oxidation (dNOX (ABP-20) [2]): 0.03 ± 0.01 μmoles/min/mg protein
DTDP Interchange (dNOX (ABP-20) [3]): 0.02 ± 0.01 μmoles/min/mg protein
Effect of replacement on disulfide-thiol interchange (dNOX (ABP-20) [3]): near background

B4: H106A: ABP-20 putative copper site replacement (protein, UniProt O04011 24-214, looked up, variant H106A)
Auxin-binding protein ABP20: AVQDFCVADLAAPEGPAGFSCKKPASVKVNDFVFSGLGIAGNTSNIIKAAVTPAFVAQFPGVNGLGISIARLDLAVGGVVPFATHPGASEVLIVAQGTICAGFVASDNTPYLQTLEKGDIMVFPQGLLHFQVNGGEAPALAFASFGSASPGLQILDFALFKNDLPTEVIAQTTFLDAAQIKKLKGVLGGTN
Effect of replacement on NADH oxidation (dNOX (ABP-20) [2]): near background
NADH Oxidation (dNOX (ABP-20) [2]): 0.04 ± 0.01 μmoles/min/mg protein
DTDP Interchange (dNOX (ABP-20) [3]): 0.02 ± 0.01 μmoles/min/mg protein
Effect of replacement on disulfide-thiol interchange (dNOX (ABP-20) [3]): near background
